This note sets out measurements from publication PMC10290954 (Nature Metabolism, 2023).

Experiment [1] deals with T1, mouse GIP receptor (Mus musculus, UniProt Q0P543).
T1 sequence (Q0P543 19-460): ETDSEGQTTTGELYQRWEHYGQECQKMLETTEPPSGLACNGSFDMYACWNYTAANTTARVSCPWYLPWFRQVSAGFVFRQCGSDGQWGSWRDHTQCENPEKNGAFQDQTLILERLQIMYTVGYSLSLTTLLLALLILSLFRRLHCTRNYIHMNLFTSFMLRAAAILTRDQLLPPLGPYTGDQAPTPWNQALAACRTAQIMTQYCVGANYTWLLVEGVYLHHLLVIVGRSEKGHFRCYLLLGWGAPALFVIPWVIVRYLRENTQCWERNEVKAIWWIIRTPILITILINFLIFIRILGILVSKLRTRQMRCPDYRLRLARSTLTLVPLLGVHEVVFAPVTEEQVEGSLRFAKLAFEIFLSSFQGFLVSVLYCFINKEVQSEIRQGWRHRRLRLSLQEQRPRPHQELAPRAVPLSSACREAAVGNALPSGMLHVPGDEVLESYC
Kind of experiment: [35S]GTPγS binding, mouse GIPR. Format: biochemical. The settings on record: mGIPR GTPgS. On the set-up: expressed in transfected cells; host or cells: low-receptor-density clonal cell lines. As for the experimental part:
(§1) Methods for these assays have been previously described. In brief, for GTPγs binding, the potency of ligands to stimulate receptor-dependent elevation of the GTPγS-bound Gαs subunit was determined using membrane preparations from low-receptor-density receptor clonal cell lines. Reactions were incubated for 30 min at room temperature in white, clear-bottom microtiter plates, and per cent of the maximal response was calculated using control wells as a reference. Relative EC50 values were derived by nonlinear regression analysis using the per cent response versus the concentration of ligand and fitted to a four-parameter logistic equation using GraphPad Prism 7 software. For cAMP assays, kinetic cAMP assays were performed in low-density receptor cell clones transfected with the Glosensor 22 F vector (Promega). Cells were equilibrated for 5–20 min and then 20 μl of 10× ligand was added and a luminescence time course was collected.

Experiment [2] addresses T1, mouse GIP receptor. Kind of experiment: cAMP generation (Glosensor), mouse GIPR. The class given is cell-based. On the set-up: expressed in transfected cells; host or cells: low-receptor-density clonal cell lines. The settings on record: for HillSlope / Span (four parameter fit) / Top (four parameter fit) / Bottom (four parameter fit): mGIP-R HEK-293 cells, cAMP formation; for HillSlope: four parameter fit - normalized; for Span (four parameter fit) / Top (four parameter fit) / Bottom (four parameter fit): max signal = 100 nM human GIP(1-42)NH2, normalized. As for the experimental part: as §1, with “collected. Ligand (10×) was titrated by manual serial dilution in DMSO followed by step-down into assay buffer.” for “collected.”
For orientation: Cyclic AMP is a second messenger, typically raised through Gs and lowered through Gi signalling.

The next experiment concerns human islets. Put plainly: Human islet perifusion, insulin secretion with Ex9 or hGIP(3-30) (Extended Data Fig. 2). Format: cell-based. The settings on record: two donor sets, 30 nM tirzepatide, antagonist 1 μM. As for the experimental part:
Human islets were obtained from both the Alberta Diabetes Institute and the Integrated Islet Distribution Program. All islets were obtained from consenting donors. Details for the general perifusion protocol have been previously described[21] and are similar to the mouse perifusion protocol. […] Each set of human islets consisted of n = 3 for each condition. These were averaged to generate a single data point (Fig. 2c). Insulin values were measured with a Lumit insulin immunoassay (Promega) using an EnVision plate reader (PerkinElmer). For the glucagon secretion experiments (Fig. 3), the average glucagon values were calculated during control (minutes 35–45) and stimulated (minutes 55–65) conditions. All peptides were used at 30 nM concentrations based on previous work[16]. Amino acids were used at concentrations of 3 mM based on previous work[11]. Glucagon was measured with a Lumit Glucagon Immunoassay Kit (cat. no. CS3037A02; Promega) using an EnVision plate reader (PerkinElmer). Somatostatin was measured with an ELISA assay (cat. no. FEK-060-14; Phoenix Pharmaceuticals). All data are expressed as the measured concentration relative to both flow rate and islet number (insulin, ng ml^–1 × (1/200 µl ml^–1) × (1/75 islets); glucagon, pM × (1/200 µl ml^–1) × (1/75 islets); somatostatin, pg ml^–1 × (1/200 µl ml^–1) × (1/75 islets))[49]. Human pancreatic islets and pancreas tissue were isolated from deceased donors under ethical approval from the Human Research Ethics Board of the University of Alberta (Pro00013094, Pro00001754) and obtained from the NIDDK-funded Integrated Islet Distribution Program (IIDP) (RRID: SCR _014387). All donors’ families gave informed consent for the use of pancreatic tissue in research and were not financially compensated.
The integrated area under the curve (iAUC) was calculated for both glucose and tirzepatide stimulated insulin secretion using the value of the first time point as the baseline. All values are mean + /- SEM, n = 3/group. A one-way ANOVA with Tukey’s posthoc test was used. Source data

Experiment [3] addresses T2, mouse GIP receptor (mGIPR), transiently expressed in HEK293T cells for BRET (mouse) (UniProt Q0P543).
T2 sequence: T1 sequence (Q0P543 19-460)

Experiment [4] concerns the target T3, mouse GIP receptor (mGIPR), cloned, in membranes of HEK cells (mouse) (UniProt Q0P543).
T3 sequence: T1 sequence (Q0P543 19-460)

Regarding `CC[C@H](C)[C@H](NC(=O)[C@H](CO)NC(=O)[C@H](Cc1ccc(O)cc1)NC(=O)[C@H](CC(=O)O)NC(=O)[C@H](CO)NC(=O)[C@@H](NC(=O)[C@H](Cc1ccccc1)NC(=O)[C@@H](NC(=O)CNC(=O)[C@H](CCC(=O)O)NC(=O)[C@H](C)NC(=O)[C@@H](N)Cc1ccc(O)cc1)[C@@H](C)O)[C@@H](C)CC)C(=O)N[C@@H](C)C(=O)N[C@@H](CCSC)C(=O)N[C@@H](CC(=O)O)C(=O)N[C@@H](CCCCN)C(=O)N[C@H](C(=O)N[C@@H](Cc1c[nH]cn1)C(=O)N[C@@H](CCC(N)=O)C(=O)N[C@@H](CCC(N)=O)C(=O)N[C@@H](CC(=O)O)C(=O)N[C@@H](Cc1ccccc1)C(=O)N[C@H](C(=O)N[C@@H](CC(N)=O)C(=O)N[C@@H](Cc1c[nH]c2ccccc12)C(=O)N[C@@H](CC(C)C)C(=O)N[C@@H](CC(C)C)C(=O)N[C@@H](C)C(=O)N[C@@H](CCC(N)=O)C(=O)N[C@@H](CCCCN)C(=O)NCC(=O)N[C@@H](CCCCN)C(=O)N[C@@H](CCCCN)C(=O)N[C@@H](CC(N)=O)C(=O)N[C@@H](CC(=O)O)C(=O)N[C@@H](Cc1c[nH]c2ccccc12)C(=O)N[C@@H](CCCCN)C(=O)N[C@@H](Cc1c[nH]cn1)C(=O)N[C@@H](CC(N)=O)C(=O)N[C@H](C(=O)N[C@H](C(=O)N[C@@H](CCC(N)=O)C(N)=O)[C@@H](C)O)[C@@H](C)CC)C(C)C)[C@@H](C)CC` [hGIP], the Emax was determined as 91.9% at mouse GIP receptor [1] (run of 2019-03-15), 91.5% on mouse GIP receptor [1] (run of 2019-04-02), 93.8% at mouse GIP receptor [1] (run of 2019-06-28) and 93.1% at mouse GIP receptor [1] (run of 2022-02-17).
On to `CC[C@H](C)[C@H](NC(=O)[C@H](CO)NC(=O)[C@H](Cc1ccc(O)cc1)NC(=O)[C@H](CC(=O)O)NC(=O)[C@H](CO)NC(=O)[C@@H](NC(=O)[C@H](Cc1ccccc1)NC(=O)[C@@H](NC(=O)CNC(=O)[C@H](CCC(=O)O)NC(=O)[C@H](C)NC(=O)[C@@H](N)Cc1ccc(O)cc1)[C@@H](C)O)[C@@H](C)CC)C(=O)N[C@@H](C)C(=O)N[C@@H](CCSC)C(=O)N[C@@H](CC(=O)O)C(=O)N[C@@H](CCCCN)C(=O)N[C@H](C(=O)N[C@@H](CCCNC(=N)N)C(=O)N[C@@H](CCC(N)=O)C(=O)N[C@@H](CCC(N)=O)C(=O)N[C@@H](CC(=O)O)C(=O)N[C@@H](Cc1ccccc1)C(=O)N[C@H](C(=O)N[C@@H](CC(N)=O)C(=O)N[C@@H](Cc1c[nH]c2ccccc12)C(=O)N[C@@H](CC(C)C)C(=O)N[C@@H](CC(C)C)C(=O)N[C@@H](C)C(=O)N[C@@H](CCC(N)=O)C(=O)N[C@@H](CCCNC(=N)N)C(=O)NCC(=O)N[C@@H](CCCCN)C(=O)N[C@@H](CCCCN)C(=O)N[C@@H](CO)C(=O)N[C@@H](CC(=O)O)C(=O)N[C@@H](Cc1c[nH]c2ccccc12)C(=O)N[C@@H](CCCCN)C(=O)N[C@@H](Cc1c[nH]cn1)C(=O)N[C@@H](CC(N)=O)C(=O)N[C@H](C(=O)N[C@H](C(=O)N[C@@H](CCC(N)=O)C(N)=O)[C@@H](C)O)[C@@H](C)CC)C(C)C)[C@@H](C)CC` [mouse GIP(1-42)NH2], for which, on mouse GIP receptor [2] (HEK293, read-out: Arthmetic Mean Emax), the maximal effect (Emax) came to 103%. Moreover, the HillSlope on mouse GIP receptor [2] (run 2022-10-04, replicate 1) came out at 0.8118; on mouse GIP receptor [2] (run 2022-10-04, replicate 2), 0.9861; on mouse GIP receptor [2] (run 2022-10-06, replicate 1), 0.7723; on mouse GIP receptor [2] (run 2022-10-06, replicate 2) it was 0.9288; at mouse GIP receptor [2] (run 2022-10-12) it was 1.095. Also, the “Span (four parameter fit)” value at mouse GIP receptor [2] (run 2022-10-04, replicate 1) turned out to be 112.9 Percent Max-Min; at mouse GIP receptor [2] (run 2022-10-04, replicate 2) it was 111.3 Percent Max-Min; on mouse GIP receptor [2] (run 2022-10-06, replicate 1) it was 105.7 Percent Max-Min; at mouse GIP receptor [2] (run 2022-10-06, replicate 2), 102 Percent Max-Min; on mouse GIP receptor [2] (run 2022-10-12) it was 97.15 Percent Max-Min. Moreover, the “Top (four parameter fit)” value on mouse GIP receptor [2] (run 2022-10-04, replicate 1) came out at 112.9 Percent Max-Min; at mouse GIP receptor [2] (run 2022-10-04, replicate 2), 106.4 Percent Max-Min; on mouse GIP receptor [2] (run 2022-10-06, replicate 1), 100.3 Percent Max-Min; on mouse GIP receptor [2] (run 2022-10-06, replicate 2), 99.51 Percent Max-Min; on mouse GIP receptor [2] (run 2022-10-12) it was 95.87 Percent Max-Min. Besides, the “Bottom (four parameter fit)” value on mouse GIP receptor [2] (run 2022-10-06, replicate 1) is -5.431 Percent Max-Min; at mouse GIP receptor [2] (run 2022-10-06, replicate 2), -2.463 Percent Max-Min; on mouse GIP receptor [2] (run 2022-10-12) it was -1.282 Percent Max-Min.
As for “hGIP(3-30): a different GIPR antagonist that has been previously characterized (ref 27) (EGTFISDYSIAMDKIHQQDFVNWLLAQK; Gastric inhibitory polypeptide; UniProt P09681 54-81, looked up, fragment)”, the “Effect on tirzepatide-stimulated insulin secretion” value with human islets was “A similar outcome”.
In experiment [3], “human glucose-dependent insulinotropic polypeptide (hGIP) (from UniProt P09681 52-93)” displayed a Gs recruitment (ligand-induced BRET), EC50 of 153 nM and a Gs recruitment (ligand-induced BRET), Emax of 101%. In addition, in experiment [4], the [35S]GTPγS binding (G-protein activation), EC50 is 0.735 nM; the [35S]GTPγS binding (G-protein activation), Emax was 96.7%; the cAMP generation, EC50 was 0.046 nM.

The Emax is the greatest response seen or fitted, relative to the assay's reference.
